Reference: patent US9738648B2, “Pyridines, pyrimidines, and pyrazines, as BTK inhibitors and uses thereof” (Merck Patent GmbH, priority 2013, dated 2017)

target: T1, full-length human BTK (Homo sapiens, UniProt Q06187); test: BTK IC50 Enzyme Assay (Assay A), microfluidic off-chip mobility shift kinase assay; type: biochemical; conditions: kinKDR peptide substrate, 90 min at 27° C.
T1 construct: 2.5× stocks of full-length human BTK (08-080) from CarnaBio USA, Inc; purchased CarnaBio USA, Inc., Natick, Mass; 08-080
Procedure: BTK IC50 Enzyme Assay (Assay A)
The following describes a microfluidic, off-chip mobility shift kinase assay used to measure inherent potency of compounds against BTK enzyme.
2.5× stocks of full-length human BTK (08-080) from CarnaBio USA, Inc., Natick, Mass., 1.6×ATP and appropriate kinKDR peptide substrate (FITC-AHA-EEPLYWSFPAKKK10 NH2) were prepared in kinase reaction buffer consisting of 25 mM MgCl2, 0.015% Brij-35 (30%), 100 mM Hepes, pH 7.5, and 10 mM DTT.
5 uL of enzyme buffer and 7.5 uL of ATP/kinKDR peptide substrate mix were added to Matrix (#115304) 384-well, sterile, polypropylene plates (Thermo Fisher Scientific, 15 Hudson, N.H.) with 125 nL of serially diluted compounds prepared in 100% DMSO, and incubated for 90 min. at 27° C. Following the incubation period, reactions were stopped by adding 60 uL stop buffer consisting of 100 mM Hepes, pH 7.5, 0.015% Brij-35 (30%), 0.277% Coating Reagent #3 (Caliper Life Sciences, Mountain View, Calif.), 5% DMSO. Stopped reactions were monitored at −2 PSI, −3000 V/−700 V in a LabChip 3000 plate 20 reader from Caliper Life Sciences, a PerkinElmer Company (Hopkinton, Mass.), and the activity was measured by off-chip mobility shift assay measuring the charge/mass difference between substrate and product resulting from peptide phosphorilation. IC50 and efficacy were determined by plotting log [Inhibitor] vs. % Activity in GeneData Screener (Basel, Switzerland).

T1 sequence (Q06187 whole entry): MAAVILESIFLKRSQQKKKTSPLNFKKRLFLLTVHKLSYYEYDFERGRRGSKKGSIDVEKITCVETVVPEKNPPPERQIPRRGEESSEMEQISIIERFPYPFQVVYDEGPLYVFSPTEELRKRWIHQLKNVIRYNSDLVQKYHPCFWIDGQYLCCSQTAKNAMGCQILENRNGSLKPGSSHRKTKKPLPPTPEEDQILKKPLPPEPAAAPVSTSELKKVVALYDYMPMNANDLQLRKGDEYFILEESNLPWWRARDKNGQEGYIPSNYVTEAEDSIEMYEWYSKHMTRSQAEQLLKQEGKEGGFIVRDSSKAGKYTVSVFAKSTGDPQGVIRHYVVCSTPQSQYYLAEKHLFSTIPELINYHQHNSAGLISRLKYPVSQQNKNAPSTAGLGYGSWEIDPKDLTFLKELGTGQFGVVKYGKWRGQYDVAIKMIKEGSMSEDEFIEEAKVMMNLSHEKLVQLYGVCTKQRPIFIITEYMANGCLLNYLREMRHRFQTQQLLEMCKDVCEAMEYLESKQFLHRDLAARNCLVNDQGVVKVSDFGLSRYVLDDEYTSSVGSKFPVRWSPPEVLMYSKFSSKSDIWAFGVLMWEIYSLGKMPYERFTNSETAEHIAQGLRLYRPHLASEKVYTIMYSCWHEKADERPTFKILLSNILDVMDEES

| Compound | IC50 |
| --- | --- |
| CN(C)C/C=C/C(=O)N1CCC(n2ccc3ncnc(Oc4ccc(Oc5ccccc5)cc4)c32)CC1 [Compound 1, (E)-4-(dimethylamino)-1-(4-(4-(4-phenoxyphenoxy)-5H-pyrrolo[3,2-d]pyrimidin-5-yl)piperidin-1-yl)but-2-en-1-one] | < 100 nM |
| C=CC(=O)N1CCC(n2ccc3ncnc(Oc4ccc(Oc5ccccc5)cc4)c32)CC1 [Compound 2, 1-(4-(4-(4-phenoxyphenoxy)-5H-pyrrolo[3,2-d]pyrimidin-5-yl)piperidin-1-yl)prop-2-en-1-one] | < 100 nM |
| C=CC(=O)N1CC(n2ccc3ncc(-c4ccc(Oc5ccccc5)cc4)cc32)C1 [Compound 4, 1-(3-(6-(4-phenoxyphenyl)-1H-pyrrolo[3,2-b]pyridin-1-yl)azetidin-1-yl)prop-2-en-1-one] | < 100 nM |
| C=CC(=O)N1CC[C@H](n2ccc3ncnc(Oc4ccc(Oc5ccccc5)cc4)c32)C1 [Compound 5, (S)-1-(3-(4-(4-phenoxyphenoxy)-5H-pyrrolo[3,2-d]pyrimidin-5-yl)pyrrolidin-1-yl)prop-2-en-1-one] | < 100 nM |
| C=CC(=O)N1CC(n2ccc3ncnc(Nc4ccc(Oc5ccccc5)cc4)c32)C1 [Compound 6, 1-(3-(4-((4-phenoxyphenyl)amino)-5H-pyrrolo[3,2-d]pyrimidin-5-yl)azetidin-1-yl)prop-2-en-1-one] | < 100 nM |
| C=CC(=O)N1CC(n2ccc3ncc(-c4ccc(Oc5ccccc5)cc4)nc32)C1 [Compound 7, 1-(3-(3-(4-phenoxyphenyl)-5H-pyrrolo[2,3-b]pyrazin-5-yl)azetidin-1-yl)prop-2-en-1-one] | < 100 nM |
| C=CC(=O)N[C@H]1C[C@H](n2ccc3ncnc(Oc4ccc(Oc5ccccc5)cc4)c32)C1 [Compound 8, N-(trans-3-(4-(4-phenoxyphenoxy)-5H-pyrrolo[3,2-d]pyrimidin-5-yl)cyclobutyl)acrylamide] | < 100 nM |
| C=CC(=O)N1CC[C@@H]1Cn1ccc2ncnc(Oc3ccc(Oc4ccccc4)cc3)c21 [Compound 9, (R)-1-(2-((4-(4-phenoxyphenoxy)-5H-pyrrolo[3,2-d]pyrimidin-5-yl)methyl)azetidin-1-yl)prop-2-en-1-one] | < 100 nM |
| C=CC(=O)N[C@H]1C[C@@H](n2ncc3ncnc(Oc4ccc(Oc5ccccc5)cc4)c32)C1 [Compound 11, N-((1s,3s)-3-(7-(4-phenoxyphenoxy)-1H-pyrazolo[4,3-d]pyrimidin-1-yl)cyclobutyl)acrylamide] | < 100 nM |
| C=CC(=O)N1CCC(n2ncc3ncnc(Oc4ccc(Oc5ccccc5)cc4)c32)CC1 [Compound 12, 1-(4-(7-(4-phenoxyphenoxy)-1H-pyrazolo[4,3-d]pyrimidin-1-yl)piperidin-1-yl)prop-2-en-1-one] | < 100 nM |
| CN(C)C/C=C/C(=O)N1CCC(n2ncc3ncnc(Oc4ccc(Oc5ccccc5)cc4)c32)CC1 [Compound 14, (E)-4-(dimethylamino)-1-(4-(7-(4-phenoxyphenoxy)-1H-pyrazolo[4,3-d]pyrimidin-1-yl)piperidin-1-yl)but-2-en-1-one] | < 100 nM |
| C=CC(=O)N1CCCC(Cn2ccc3ncnc(Oc4ccc(Oc5ccccc5)cc4)c32)C1 (centres unmarked) [Compound 15, 1-(3-((4-(4-phenoxyphenoxy)-5H-pyrrolo[3,2-d]pyrimidin-5-yl)methyl)piperidin-1-yl)prop-2-en-1-one] | < 100 nM |
| C=CC(=O)N1CC(n2ccc3ncnc(Oc4ccc(OCc5ccccc5)cc4)c32)C1 [Compound 16, 1-(3-(4-(4-(benzyloxy)phenoxy)-5H-pyrrolo[3,2-d]pyrimidin-5-yl)azetidin-1-yl)prop-2-en-1-one] | < 100 nM |
| C=CC(=O)N1CC(n2ccc3ncnc(Oc4ccc(Cc5ccccc5)cc4)c32)C1 [Compound 17, 1-(3-(4-(4-benzylphenoxy)-5H-pyrrolo[3,2-d]pyrimidin-5-yl)azetidin-1-yl)prop-2-en-1-one] | < 100 nM |
| CN(C)C/C=C/C(=O)N1CC[C@H](n2ccc3ncnc(Oc4ccc(Oc5ccccc5)cc4)c32)C1 [Compound 18, (S,E)-4-(dimethylamino)-1-(3-(4-(4-phenoxyphenoxy)-5H-pyrrolo[3,2-d]pyrimidin-5-yl)pyrrolidin-1-yl)but-2-en-1-one] | < 100 nM |
| CN(C)C/C=C/C(=O)N1CC(n2ccc3ncnc(Oc4ccc(Oc5ccccc5)cc4)c32)C1 [Compound 19, (E)-4-(dimethylamino)-1-(3-(4-(4-phenoxyphenoxy)-5H-pyrrolo[3,2-d]pyrimidin-5-yl)azetidin-1-yl)but-2-en-1-one] | < 100 nM |
| C=CC(=O)N1CC(Cn2ccc3ncnc(Oc4ccc(Oc5ccccc5)cc4)c32)C1 [Compound 20, 1-(3-((4-(4-phenoxyphenoxy)-5H-pyrrolo[3,2-d]pyrimidin-5-yl)methyl)azetidin-1-yl)prop-2-en-1-one] | < 100 nM |
| C=CC(=O)N[C@H]1C[C@H](n2ncc3ncnc(Oc4ccc(Oc5ccccc5)cc4)c32)C1 [Compound 21, N-((1r,3r)-3-(7-(4-phenoxyphenoxy)-1H-pyrazolo[4,3-d]pyrimidin-1-yl)cyclobutyl)acrylamide] | < 100 nM |
| C=CC(=O)N1CC(n2ccc3ncnc(Oc4ccc(Nc5ccccc5)cc4)c32)C1 [Compound 22, 1-(3-(4-(4-(phenylamino)phenoxy)-5H-pyrrolo[3,2-d]pyrimidin-5-yl)azetidin-1-yl)prop-2-en-1-one] | < 100 nM |
| C=CC(=O)N1CC(n2ncc3ncc(-c4ccc(Oc5ccccc5)cc4)nc32)C1 [Compound 23, 1-(3-(6-(4-phenoxyphenyl)-1H-pyrazolo[3,4-b]pyrazin-1-yl)azetidin-1-yl)prop-2-en-1-one] | < 100 nM |
| CN(C)C/C=C/C(=O)N1CC(n2ccc3ncc(-c4ccc(Oc5ccccc5)cc4)nc32)C1 [Compound 24, (E)-4-(dimethylamino)-1-(3-(3-(4-phenoxyphenyl)-5H-pyrrolo[2,3-b]pyrazin-5-yl)azetidin-1-yl)but-2-en-1-one] | < 100 nM |
| C=CC(=O)N1CC[C@H]1Cn1ccc2ncnc(Oc3ccc(Oc4ccccc4)cc3)c21 [Compound 25, (S)-1-(2-((4-(4-phenoxyphenoxy)-5H-pyrrolo[3,2-d]pyrimidin-5-yl)methyl)azetidin-1-yl)prop-2-en-1-one] | < 100 nM |
| C=CC(=O)NCCCn1ccc2ncnc(Oc3ccc(Oc4ccccc4)cc3)c21 [Compound 26, N-(3-(4-(4-phenoxyphenoxy)-5H-pyrrolo[3,2-d]pyrimidin-5-yl)propyl)acrylamide] | < 100 nM |
| C=CC(=O)N1CC(n2ccc3ncnc(Oc4ccc(Oc5ccc(F)cc5)cc4)c32)C1 [Compound 27, 1-(3-(4-(4-(4-fluorophenoxy)phenoxy)-5H-pyrrolo[3,2-d]pyrimidin-5-yl)azetidin-1-yl)prop-2-en-1-one] | < 100 nM |
| C=CC(=O)N1CC2(CC(n3ccc4ncnc(Oc5ccc(Oc6ccccc6)cc5)c43)C2)C1 [Compound 28, 1-(6-(4-(4-phenoxyphenoxy)-5H-pyrrolo[3,2-d]pyrimidin-5-yl)-2-azaspiro[3.3]heptan-2-yl)prop-2-en-1-one] | < 100 nM |
| C=CC(=O)N1CCC(Cn2ccc3ncnc(Oc4ccc(Oc5ccccc5)cc4)c32)C1 (centres unmarked) [Compound 29, 1-(3-((4-(4-phenoxyphenoxy)-5H-pyrrolo[3,2-d]pyrimidin-5-yl)methyl)pyrrolidin-1-yl)prop-2-en-1-one] | < 100 nM |
